Data on 14 compounds can be found in patent US5523314A, “Compounds useful as hypoglycemic agents and for treating Alzheimer's disease” (priority 1994, dated 1996).

Where two headings read alike, the source gives them in different places.

The target of the assay is T1, Human liver cathepsin D (Homo sapiens, UniProt P07339).
T1 construct: purchased Athens Research and Technology, Athens, Ga; host or cells: human liver
As to the kind of experiment: Cathepsin D inhibition, fluorometric assay (Tables 5 and 6). The format is biochemical. Particulars: for inhibition at 8.3 µg/mL (stock): Compound Stock Concentration 8.3 μg/ml; for inhibition at 4.15 µg/mL (stock): Compound Stock Concentration 4.15 μg/ml; for inhibition at 10 µg/mL (stock): Compound Stock Concentration 10.0 μg/ml; for ability to inhibit cathepsin D: compared to structurally similar compounds known in the art, in words. How it is done:
Human liver cathepsin D (Athens Research and Technology, Athens, Ga.) was diluted in assay buffer, 200 mM NaOAc, pH 4.5, 150 mM NaCl to 500 ng/mL and then 100 μL of this cathepsin D solution was added to each well of a 96 well plate with the exception of control wells which received just 100 μL of assay buffer. […] Blank and enzyme control wells each received 5 μL of the DMSO vehicle.
After incubation at 37° C. for 30 minutes, cathepsin D activity was terminated by the addition of 100 μL per well of 400 mU/mL microsomal leucine aminopeptidase (EC 3.4.11.2, Sigma, St. Louis, Mo.) in 1M Tris-HCl, pH 8.0.
Following a two hour incubation at 37° C., to allow the aminopeptidase to release the fluorophore, 7-amido-4-methylcoumarin (AMC) from the products of cathepsin D cleavage, the plates were again analyzed in the fluorometer. In order to check for potential false positives, i.e., inhibitors of microsomal leucine aminopeptidase, residual aminopeptidase activity was monitored directly in each well by the addition of 20 μL/well of 2.5 mM Leu-pNA (Bachem Biosciences, Philadelphia, Pa.) in 10% DMSO.

T1 sequence (P07339 169-412 limits assumed): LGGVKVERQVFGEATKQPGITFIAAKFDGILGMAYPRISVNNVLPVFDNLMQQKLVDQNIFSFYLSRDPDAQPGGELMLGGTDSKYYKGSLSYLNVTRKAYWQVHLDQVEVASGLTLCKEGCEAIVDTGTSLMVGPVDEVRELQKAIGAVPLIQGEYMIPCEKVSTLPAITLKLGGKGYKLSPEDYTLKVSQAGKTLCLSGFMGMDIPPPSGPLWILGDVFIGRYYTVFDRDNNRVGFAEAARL
T1 sequence (P07339 65-161 limits assumed): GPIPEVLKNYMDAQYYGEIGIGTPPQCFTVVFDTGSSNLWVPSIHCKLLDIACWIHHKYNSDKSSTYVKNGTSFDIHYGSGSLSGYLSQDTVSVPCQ

As a reminder, the inhibition is the relative decrease from the control value, in per cent. `C=CCN1C(=O)C(=Cc2ccc(OCCCCCCC)c(OC)c2)SC1=S` [Example 95, 5-[(3-methoxy-4-heptoxyphenyl)methylene]-2-thioxo-3-(2-propenyl)-4-thiazolidinone] gave an inhibition at 8.3 µg/mL (stock) of 36%.
For orientation: IC50 means the midpoint of a concentration-inhibition curve. Read a high IC50 as lower potency. With `COc1c(C(C)(C)C)cc(C=C2SC(=S)NC2=O)cc1C(C)(C)C` [Example 87, 5-[[3,5-bis(1,1-dimethylethyl)-4-methoxyphenyl]methylene]-2-thioxo-4-thiazolidinone], the IC50 worked out at 2.2 µM. In other words, the single-digit micromolar range.
In the case of `CC(=C1SC(=S)NC1=O)c1cccc(Oc2ccccc2)c1` [Example 78, 5-[(3-phenoxyphenyl)methylmethylene]-2-thioxo-4-thiazolidinone], it took 22.1 µM to reach half-maximal inhibition (IC50) and the inhibition at 4.15 µg/mL (stock) amounted to 41%.
Consider `CN(C)c1ccc(C=C2SC(=S)NC2=O)cc1` [Example 82, 5-[[4-(dimethylamino)phenyl]methylene]-2-thioxo-4-thiazolidinone], for which the inhibition at 10 µg/mL (stock) was 73.5%.
`CCOc1cc(C=C2SC(=S)N(C)C2=O)cc(CSc2ccccc2)c1O` [Example 73] registered an inhibition at 4.15 µg/mL (stock) of 69% and an inhibition at 8.3 µg/mL (stock) of 76%. The compound also yielded an IC50 (50% inhibition of cathepsin D) of 9.9 µM.
`CCOc1cc(C=C2SC(=S)N(C3CCCCC3)C2=O)ccc1O` [Example 84, 5-[(3-ethoxy-4-hydroxyphenyl)methylene]-2-thioxo-3-cyclohexyl-4-thiazolidinone] came in with an inhibition at 4.15 µg/mL (stock) of 51%.
In the case of `O=C1NC(=S)SC1=Cc1cccc2ccccc12` [Example 75, 5-[(1-naphthyl)methylene]-2-thioxo-4-thiazolidinone], the inhibition at 10 µg/mL (stock) worked out at 43%.
Take `CCCCCOc1ccc(C=C2SC(=S)N(CC(=O)O)C2=O)cc1OCCCCC` [Example 91, 5-[(3,4-dipentoxyphenyl)methylene]-4-oxo-2-thioxo-3-thiazolidine acetic acid]: half-maximal inhibition (IC50) was put at 9.7 µM, the inhibition at 4.15 µg/mL (stock) is 72% and the “ability to inhibit cathepsin D” value is listed as “surprising ability to inhibit cathepsin D levels”.
In the case of `CCOc1cc(C=C2SC(=S)N(C)C2=O)ccc1O` [Example 88, 5-[(3-ethoxy-4-hydroxyphenyl)methylene]-2-thioxo-3-methyl-4-thiazolidinone], the IC50 is 11.2 µM, the inhibition at 4.15 µg/mL (stock) was 67%, the inhibition at 8.3 µg/mL (stock) came out at 82% and the “ability to inhibit cathepsin D” value is listed as “surprising ability to inhibit cathepsin D levels”.
Take `CCCCCCCOc1ccc(C=C2SC(=S)N(N)C2=O)cc1OC` [Example 80, 5-[(3-methoxy-4-heptoxyphenyl)methylene]-2-thioxo-3-amino-4-thiazolidinone]: inhibition was half-maximal at 47 µM (IC50) and the inhibition at 8.3 µg/mL (stock) came to 33%.
On to `CN1C(=O)C(=Cc2ccc(O)c(C(C)(C)C)c2)SC1=S` [Example 92, 5-[[3-(1,1-dimethylethyl)-4-hydroxyphenyl]methylene]-2-thioxo-3-methyl-4-thiazolidinone], for which the 50% inhibitory concentration (IC50) is 3.9 µM, the inhibition at 4.15 µg/mL (stock) came to 74% and the “ability to inhibit cathepsin D” value is reported as “surprising ability to inhibit cathepsin D levels”.
As for `CCOc1cc(C=C2SC(=S)N(N(C)C)C2=O)cc(CSc2ccccc2)c1O` [Example 89], the inhibition at 8.3 µg/mL (stock) worked out at 71%. This compound also had a half-inhibitory concentration (IC50) (50% inhibition of cathepsin D) of 9.2 µM.
Compound `CC(=C1SC(=S)NC1=O)c1ccc2ccccc2c1` [Example 76, 5-[(2-naphthyl)methylmethylene]-2-thioxo-4-thiazolidinone] gave an inhibition at 10 µg/mL (stock) of 32%.
As for `CCOc1cc(C=C2SC(=S)N(N(C)C)C2=O)ccc1O` [Example 90, 5-[(3-ethoxy-4-hydroxyphenyl)methylene]-2-thioxo-3-dimethylamino-4-thiazolidinone], the midpoint of inhibition, the IC50, lay at 7.7 µM; the inhibition at 4.15 µg/mL (stock) is 79%; the inhibition at 8.3 µg/mL (stock) was determined as 92%; the “ability to inhibit cathepsin D” value is listed as “surprising ability to inhibit cathepsin D levels”.
